Measured values reported in BigSolDB 2.1.

CC(C)(C)c1cc(CCC(=O)OCC(COC(=O)CCc2cc(C(C)(C)C)c(O)c(C(C)(C)C)c2)(COC(=O)CCc2cc(C(C)(C)C)c(O)c(C(C)(C)C)c2)COC(=O)CCc2cc(C(C)(C)C)c(O)c(C(C)(C)C)c2)cc(C(C)(C)C)c1O
solubility (mole fraction)
Settings | 293.15 K | 298.15 K | 303.15 K | 308.15 K | 313.15 K | 318.15 K | 323.15 K | 328.15 K | 333.15 K
in ethanol | 0.000302 | 0.000445 | 0.000685 | 0.00105 | 0.0016 | 0.00238 | 0.00351 | 0.0051 | 0.0074
in isopropanol | 0.000148 | 0.000239 | 0.000406 | 0.000631 | 0.000998 | 0.00158 | 0.00252 | 0.00411 | 0.00638
in methanol | 0.000221 | 0.000332 | 0.000544 | 0.000812 | 0.00126 | 0.00203 | 0.00287 | 0.00429 | 0.00726
